Measured values published in patent US8168232B2, “Formulations and methods of using nitric oxide mimetics in cancer treatment” (priority 2000, dated 2012).

Experiments:
[1] = tested on: MDA-MB-231 breast cancer cells; assay: Colony formation assay for doxorubicin resistance, MDA-MB-231 monolayer; type: cell-based, human; settings: 200 μM doxorubicin
Experimental: The resistance of MDA-MB-231 breast cancer cells to doxorubicin was determined following culture in 20% or 1% oxygen by counting the number of colonies formed. MDA-MB-231 cells were incubated in 1% O2 or 20% O2 for 24 hours. […] The cells were washed and then plated onto 35 mm plates at different dilutions. The cells were incubated for an additional 1-2 weeks in order to allow cell colonies to grow. At the end of the incubation period, the cells were fixed with Carnoy's fixative, stained with Crystal violet, rinsed and allowed to air dry. Colonies were counted visually. The surviving cells under each condition was determined by counting the number of colonies and was expressed as a fraction of the number of colonies that survived without doxorubicin exposure.
Using human MDA-MB-231 breast carcinoma cells in clonogenic assays, survival was determined following doxorubicin exposure and NO mimetic administration to both monolayer and spheroid cultures. […] However, these NO mimetics effectively attenuated the resistance to 200 μM doxorubicin associated with 3D culture by 90% and 30% respectively.

[2] = tested on: human PC-3 prostatic adenocarcinoma cells; settings: 0.5% vs 20% O2; one-hour doxorubicin
Experimental: (§1) Low tumor oxygenation (hypoxia) correlates with increased metastasis and resistance to radiotherapy and chemotherapy. […] This was followed by a one-hour incubation with doxorubicin and survival was assessed by colony formation assays. Western blot analysis was used to measure NO synthase (NOS) protein levels in cells cultured in 20% and 0.5% O2.

[3] = tested on: mouse TRAMP-C2 prostatic adenocarcinoma cells; settings: 0.5% vs 20% O2; one-hour doxorubicin
Experimental: as §1

[4] = tested on: MDA-MB-231 breast carcinoma spheroids; assay: Clonogenic survival of MDA-MB-231 spheroids after doxorubicin; type: cell-based, human; settings: 200 μM doxorubicin
Experimental: Following initial cell plating, spheroids formed for 24, 48, 72, 96 or 120 h. At each time point, spheroids were exposed to 200 μM of doxorubicin, then disaggregated and plated for assessment of colony formation (survival).
Spheroids were allowed to form for 72 h. DETA/NO was applied for the final 24 h of spheroid formation. Spheroids were then exposed to doxorubicin for 1 h, prior to disaggregation and plating for assessment of survival by clonogenic assay.
Using human MDA-MB-231 breast carcinoma cells in clonogenic assays, survival was determined following doxorubicin exposure and NO mimetic administration to both monolayer and spheroid cultures.

## COc1cccc2c1C(=O)c1c(O)c3c(c(O)c1C2=O)C[C@@](O)(C(=O)CO)C[C@@H]3O[C@H]1C[C@H](N)[C@H](O)[C@H](C)O1 [doxorubicin]
[1]
  survival in monolayer culture: zero
[2]
  increased survival following doxorubicin after pre-incubation under hypoxia: up to 8 fold
[3]
  increased survival following doxorubicin after pre-incubation under hypoxia: up to 12 fold
[4]
  decrease in survival of tumor cells cultured as spheroids: 90%
